Laboratory results from patent publication US20070049564A1 (Wyeth, priority 2005, published 2007).
Like-named read-outs stand apart in the source and are kept apart here.

Assays:
E. coli GC 2236 = experiment: MIC, broth microdilution; settings: Escherichia coli, GC2236, E. coli GC 2236
E. coli GC 2235 = experiment: MIC, broth microdilution; settings: Escherichia coli, GC2235, E. coli GC 2235
E. coli GC 2233 = experiment: MIC, broth microdilution; settings: Escherichia coli, GC2233, E. coli GC 2233
E. coli GC 2270 = experiment: MIC, broth microdilution; settings: Escherichia coli, GC2270, E. coli GC 2270
E. coli GC 2271 = experiment: MIC, broth microdilution; settings: Escherichia coli, GC2271, E. coli GC 2271
E. coli GC 4559 = experiment: MIC, broth microdilution; settings: Escherichia coli, GC4559, E. coli GC 4559
E. coli GC 4560 = experiment: MIC, broth microdilution; settings: Escherichia coli, GC4560, E. coli GC 4560
E. coli GC 6465 = experiment: MIC, broth microdilution; settings: Escherichia coli, GC6465, E. coli GC 6465
E. coli GC 2203 = experiment: MIC, broth microdilution; settings: Escherichia coli, GC2203, E. coli GC 2203
E. coli GC 1073 = experiment: MIC, broth microdilution; settings: Escherichia coli, GC1073, E. coli GC 1073
Experimental: (§1) Antimicrobial susceptibility testing. The in vitro activities of the antibiotics are determined by the broth microdilution method as recommended by the National Committee for Clinical Laboratory Standards (NCCLS) (1). Mueller-Hinton II broth (MHBII)(BBL Cockeysville, Md.) is the medium employed in the testing procedures. Microtiter plates containing serial dilutions of each antimicrobial agent are inoculated with each organism to yield the appropriate density (10^5 CFU/ml) in a 100 μl final volume. The plates are incubated for 18-22 hours at 35° C. in ambient air.
Representative compounds were first incubated in mouse serum for an hour prior to the in vitro testing against a panel of selected gram-positive and gram-negative bacteria strains. All compounds were also pre-incubated in water for an hour prior to testing as control. Representative compounds of Formula I were incubated in human serum prior to MIC determination.

P. aeruginosa GC 2214 = experiment: MIC, broth microdilution; settings: Pseudomonas aeruginosa, GC2214, P. aeruginosa GC 2214
S. aureus GC 6467 = experiment: MIC, broth microdilution; settings: Staphylococcus aureus, GC6467, S. aureus GC 6467
S. aureus GC 4536 = experiment: MIC, broth microdilution; settings: Staphylococcus aureus, GC4536, S. aureus GC 4536
S. aureus GC 6469 = experiment: MIC, broth microdilution; settings: Staphylococcus aureus, GC6469, S. aureus GC 6469
Experimental: as §1
Representative compounds were first incubated in mouse serum for an hour prior to the in vitro testing against a panel of selected gram-positive and gram-negative bacteria strains. All compounds were also pre-incubated in water for an hour prior to testing as control.

E. faecalis GC 4555 = experiment: MIC, broth microdilution; settings: Enterococcus faecalis, GC4555, E. faecalis GC 4555
E. faecalis GC 2265 = experiment: MIC, broth microdilution; settings: Enterococcus faecalis, GC2265, E. faecalis GC 2265
E. faecalis GC 2242 = experiment: MIC, broth microdilution; settings: Enterococcus faecalis, GC2242, E. faecalis GC 2242
S. agalactiae GC 4564 = experiment: MIC, broth microdilution; settings: Streptococcus agalactiae, GC4564, S. agalactiae GC 4564
E. coli = experiment: Range of MIC for E. coli strains; settings: Escherichia coli
Staph. = experiment: Range of MIC for Staph. strains, including MRSA; settings: Staphylococcus aureus
[1] = 20 h, read-out: Range of MIC, E. coli (Mouse Serum)
[2] = MRSA, read-out: Range of MIC, Staph (Mouse Serum)
[3] = MRSA, read-out: Range of MIC, Staph (Water)

Measured: MIC

CCCCN(CC(=O)Nc1cc(N(C)C)c2c(c1O)C(=O)C1=C(O)[C@]3(O)C(=O)C(C(N)=O)=C(O)[C@@H](N(C)C)[C@@H]3C[C@@H]1C2)C(=O)OCOC(=O)c1ccc(F)cc1 [Example 4, ({[(2-{[(5aR,6aS,7S,10aS)-9-(aminocarbonyl)-4,7-bis(dimethylamino)-1,8,10a,11-tetrahydroxy-10,12-dioxo-5,5a,6,6a,7,10,10a,12-octahydrotetracen-2-yl]amino}-2-oxoethyl)(butyl)amino]carbonyl}oxy)methyl 4-fluorobenzoate]
> 64 µg/mL: E. coli GC 4559; Water pre-incubation | E. coli GC 6465; Water pre-incubation | E. coli GC 1073; Water pre-incubation | P. aeruginosa GC 2214; Water pre-incubation
2 µg/mL: E. coli GC 4559; Mouse Serum pre-incubation | S. aureus GC 6467; Mouse Serum pre-incubation | S. aureus GC 6469; Mouse Serum pre-incubation | E. faecalis GC 2265; Mouse Serum pre-incubation
8 to 32 µg/mL: E. coli; read-out: Minimum inhibitory concentration (MIC), E. coli (Human Serum)
0.5 µg/mL: E. coli GC 2271; Mouse Serum pre-incubation | S. agalactiae GC 4564; Water pre-incubation
16 µg/mL: S. aureus GC 6469; Water pre-incubation
1 µg/mL: E. coli GC 2236; Mouse Serum pre-incubation | E. coli GC 2235; Mouse Serum pre-incubation | E. coli GC 2233; Mouse Serum pre-incubation | E. coli GC 2270; Mouse Serum pre-incubation | E. coli GC 2203; Mouse Serum pre-incubation | E. coli GC 1073; Mouse Serum pre-incubation | S. aureus GC 4536; Mouse Serum pre-incubation | E. faecalis GC 4555; Mouse Serum pre-incubation | E. faecalis GC 2242; Mouse Serum pre-incubation
32 µg/mL: P. aeruginosa GC 2214; Mouse Serum pre-incubation
0.5 to 4 µg/mL: Staph.; read-out: Minimum inhibitory concentration (MIC), Staph (Human Serum)
0.5 to 2 µg/mL: E. coli; [1] | E. coli; read-out: Minimum inhibitory concentration (MIC), E. coli (mouse serum) | Staph.; MRSA, read-out: Minimum inhibitory concentration (MIC), Staph. (mouse serum) | Staph.; [2]
2 to 16 µg/mL: Staph.; MRSA, read-out: Minimum inhibitory concentration (MIC), Staph. (water) | Staph.; [3]
2 to 8 µg/mL: Staph.; read-out: Minimum inhibitory concentration (MIC), Staph (Water)
64 µg/mL: E. coli GC 2236; Water pre-incubation | E. coli GC 2235; Water pre-incubation | E. coli GC 2233; Water pre-incubation | E. coli GC 2270; Water pre-incubation | E. coli GC 2271; Water pre-incubation | E. coli GC 2203; Water pre-incubation
8 µg/mL: E. coli GC 4560; Water pre-incubation | S. aureus GC 6467; Water pre-incubation | E. faecalis GC 4555; Water pre-incubation | E. faecalis GC 2265; Water pre-incubation
0.25 µg/mL: E. coli GC 4560; Mouse Serum pre-incubation | S. agalactiae GC 4564; Mouse Serum pre-incubation
4 µg/mL: E. coli GC 6465; Mouse Serum pre-incubation | S. aureus GC 4536; Water pre-incubation | E. faecalis GC 2242; Water pre-incubation

CCCN(CC(=O)Nc1cc(N(C)C)c2c(c1O)C(=O)C1=C(O)[C@]3(O)C(=O)C(C(N)=O)=C(O)[C@@H](N(C)C)[C@@H]3C[C@@H]1C2)C(=O)OCOC(=O)c1ccc(C)cc1 [Example 5, ({[(2-{[(5aR,6aS,7S,10aS)-9-(aminocarbonyl)-4,7-bis(dimethylamino)-1,8,10a,11-tetrahydroxy-10,12-dioxo-5,5a,6,6a,7,10,10a,12-octahydrotetracen-2-yl]amino}-2-oxoethyl)(propyl)amino]carbonyl}oxy)methyl 4-methylbenzoate]
4 µg/mL: E. coli GC 4560; Water pre-incubation | S. aureus GC 6467; Water pre-incubation | S. aureus GC 6469; Water pre-incubation | E. faecalis GC 4555; Water pre-incubation | E. faecalis GC 2265; Water pre-incubation
0.5 to 4 µg/mL: Staph.; [3] | Staph.; MRSA, read-out: Range of MIC, Staph. (water)
2 µg/mL: E. coli GC 2236; Mouse Serum pre-incubation | E. coli GC 2233; Mouse Serum pre-incubation | E. coli GC 4559; Mouse Serum pre-incubation | E. coli GC 1073; Mouse Serum pre-incubation | S. aureus GC 6467; Mouse Serum pre-incubation | S. aureus GC 6469; Mouse Serum pre-incubation | E. faecalis GC 2265; Mouse Serum pre-incubation | E. faecalis GC 2242; Water pre-incubation
16 to 64 µg/mL: E. coli; read-out: Range of MIC, E. coli (Water) | E. coli; read-out: Range of MIC, E. coli (water)
8 µg/mL: E. coli GC 6465; Mouse Serum pre-incubation
> 64 µg/mL: E. coli GC 6465; Water pre-incubation | P. aeruginosa GC 2214; Water pre-incubation
1 µg/mL: E. coli GC 2235; Mouse Serum pre-incubation | E. coli GC 2270; Mouse Serum pre-incubation | E. coli GC 2271; Mouse Serum pre-incubation | E. coli GC 2203; Mouse Serum pre-incubation | S. aureus GC 4536; Mouse Serum pre-incubation | S. aureus GC 4536; Water pre-incubation | E. faecalis GC 4555; Mouse Serum pre-incubation | E. faecalis GC 2242; Mouse Serum pre-incubation
16 µg/mL: E. coli GC 2236; Water pre-incubation | E. coli GC 2235; Water pre-incubation | E. coli GC 2270; Water pre-incubation | E. coli GC 2271; Water pre-incubation
32 µg/mL: E. coli GC 2233; Water pre-incubation | E. coli GC 4559; Water pre-incubation | E. coli GC 2203; Water pre-incubation | E. coli GC 1073; Water pre-incubation | P. aeruginosa GC 2214; Mouse Serum pre-incubation
0.25 to 2 µg/mL: Staph.; [2] | Staph.; MRSA, read-out: Range of MIC, Staph. (mouse serum)
0.5 µg/mL: E. coli GC 4560; Mouse Serum pre-incubation | S. agalactiae GC 4564; Mouse Serum pre-incubation | S. agalactiae GC 4564; Water pre-incubation
1 to 2 µg/mL: E. coli; [1] | E. coli; read-out: Range of MIC, E. coli (mouse serum)
